Test results from patent publication US8022206B2 (OSI Pharmaceuticals, LLC, priority 2008, dated 2011).

How the values were obtained:
[1] = molecular target: RON (human) (Homo sapiens, UniProt Q04912); assay: RON (human) AlphaScreen kinase assay, Km of ATP; type: biochemical; conditions: AlphaScreen, Km of ATP; read-out: RON biochemical IC50
Summary of the method: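 Reaction was started with enzyme and run 30 min at RT. PT66 donor/acceptor beads in an EDTA-containing Tris pH 7.5 buffer were then added, and the signal was read after 1 h.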

[2] = molecular target: MET (human) (Homo sapiens, UniProt P08581); assay: MET (human) AlphaScreen kinase assay, Km of ATP; type: biochemical; conditions: AlphaScreen, Km of ATP; read-out: Met biochemical IC50
Summary of the method: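 Human MET at lot-optimised concentration in 50 mM Tris pH 7.4 buffer with 1 mM DTT, compound at 1% DMSO final; enzyme starts the reaction, 60 min at RT.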

Chain of RON (human) (Q04912 25-1400): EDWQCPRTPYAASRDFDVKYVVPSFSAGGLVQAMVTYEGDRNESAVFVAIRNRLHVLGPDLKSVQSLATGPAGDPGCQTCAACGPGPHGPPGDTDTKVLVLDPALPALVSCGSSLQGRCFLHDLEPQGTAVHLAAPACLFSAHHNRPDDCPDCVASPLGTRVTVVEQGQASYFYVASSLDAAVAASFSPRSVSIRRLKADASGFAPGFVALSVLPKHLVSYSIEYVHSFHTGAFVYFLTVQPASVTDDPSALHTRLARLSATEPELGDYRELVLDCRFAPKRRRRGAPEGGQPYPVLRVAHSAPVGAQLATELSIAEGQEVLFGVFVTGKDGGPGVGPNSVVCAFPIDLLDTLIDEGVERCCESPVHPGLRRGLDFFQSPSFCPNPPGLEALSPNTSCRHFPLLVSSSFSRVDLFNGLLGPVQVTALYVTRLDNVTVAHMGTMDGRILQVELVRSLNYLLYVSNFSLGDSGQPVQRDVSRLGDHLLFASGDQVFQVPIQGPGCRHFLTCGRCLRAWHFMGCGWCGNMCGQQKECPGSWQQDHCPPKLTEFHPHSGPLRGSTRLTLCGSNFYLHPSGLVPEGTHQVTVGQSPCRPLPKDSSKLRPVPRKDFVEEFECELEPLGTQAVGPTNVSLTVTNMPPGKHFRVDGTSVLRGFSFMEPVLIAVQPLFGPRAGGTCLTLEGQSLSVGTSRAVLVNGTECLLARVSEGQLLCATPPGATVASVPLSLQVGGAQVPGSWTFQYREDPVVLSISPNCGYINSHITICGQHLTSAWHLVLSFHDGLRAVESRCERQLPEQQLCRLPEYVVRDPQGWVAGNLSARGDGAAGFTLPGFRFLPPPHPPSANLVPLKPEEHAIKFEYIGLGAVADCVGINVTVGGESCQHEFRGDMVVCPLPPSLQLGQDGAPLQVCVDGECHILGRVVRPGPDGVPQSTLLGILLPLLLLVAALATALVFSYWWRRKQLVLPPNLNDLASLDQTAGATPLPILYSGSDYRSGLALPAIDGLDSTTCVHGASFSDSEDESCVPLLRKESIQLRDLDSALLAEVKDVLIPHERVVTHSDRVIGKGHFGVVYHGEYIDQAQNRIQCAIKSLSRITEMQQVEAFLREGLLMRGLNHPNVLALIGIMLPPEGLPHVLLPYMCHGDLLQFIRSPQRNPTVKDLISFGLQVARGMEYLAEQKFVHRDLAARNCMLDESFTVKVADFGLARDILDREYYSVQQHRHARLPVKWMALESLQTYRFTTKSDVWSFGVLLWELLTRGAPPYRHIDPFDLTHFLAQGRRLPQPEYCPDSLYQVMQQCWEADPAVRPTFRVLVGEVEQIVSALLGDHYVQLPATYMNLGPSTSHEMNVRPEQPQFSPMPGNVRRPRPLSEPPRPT
Chain of MET (human) (P08581 25-1390): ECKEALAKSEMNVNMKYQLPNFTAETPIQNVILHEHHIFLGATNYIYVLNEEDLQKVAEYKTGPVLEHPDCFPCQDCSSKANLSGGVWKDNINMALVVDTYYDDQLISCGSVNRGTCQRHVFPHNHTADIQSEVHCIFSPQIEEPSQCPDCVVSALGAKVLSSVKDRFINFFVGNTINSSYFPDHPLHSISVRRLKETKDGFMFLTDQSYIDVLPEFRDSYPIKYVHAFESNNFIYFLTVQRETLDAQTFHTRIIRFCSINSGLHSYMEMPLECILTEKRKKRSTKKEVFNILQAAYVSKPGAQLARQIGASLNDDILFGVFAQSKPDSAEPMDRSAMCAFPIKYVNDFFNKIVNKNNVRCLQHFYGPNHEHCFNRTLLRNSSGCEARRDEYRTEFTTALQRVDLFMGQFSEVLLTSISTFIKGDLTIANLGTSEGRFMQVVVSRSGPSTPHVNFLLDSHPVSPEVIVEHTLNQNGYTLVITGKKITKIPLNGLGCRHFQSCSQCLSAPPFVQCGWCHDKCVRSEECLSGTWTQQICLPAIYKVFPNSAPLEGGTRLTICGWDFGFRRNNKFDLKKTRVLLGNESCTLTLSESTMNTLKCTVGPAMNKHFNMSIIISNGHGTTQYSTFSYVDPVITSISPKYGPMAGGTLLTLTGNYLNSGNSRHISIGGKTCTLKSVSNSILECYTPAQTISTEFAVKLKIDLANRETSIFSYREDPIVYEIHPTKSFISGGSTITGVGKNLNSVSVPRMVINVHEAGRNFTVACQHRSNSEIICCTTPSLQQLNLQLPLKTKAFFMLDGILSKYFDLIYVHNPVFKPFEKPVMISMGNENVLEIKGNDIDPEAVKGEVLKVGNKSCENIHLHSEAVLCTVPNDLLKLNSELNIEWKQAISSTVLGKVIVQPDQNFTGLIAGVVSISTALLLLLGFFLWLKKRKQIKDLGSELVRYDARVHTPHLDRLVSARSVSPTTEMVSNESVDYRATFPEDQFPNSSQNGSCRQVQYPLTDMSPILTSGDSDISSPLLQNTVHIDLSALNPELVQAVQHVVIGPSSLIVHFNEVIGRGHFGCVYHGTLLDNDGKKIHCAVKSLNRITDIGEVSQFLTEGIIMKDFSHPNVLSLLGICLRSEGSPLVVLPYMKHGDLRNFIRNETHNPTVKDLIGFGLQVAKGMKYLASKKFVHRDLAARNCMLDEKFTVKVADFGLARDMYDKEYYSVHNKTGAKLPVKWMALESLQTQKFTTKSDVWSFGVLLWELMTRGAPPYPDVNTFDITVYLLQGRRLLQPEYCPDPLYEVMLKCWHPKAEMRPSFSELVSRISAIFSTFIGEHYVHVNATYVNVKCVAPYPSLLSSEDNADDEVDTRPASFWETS

SMILES | IC50 [1] | IC50 [2]
C[C@@H](Oc1c(N)ncc2c(-c3cccc(NS(=O)(=O)c4ccccc4)c3)coc12)c1c(Cl)ccc(F)c1Cl [Example 243, N-(3-{6-Amino-7-[(R)-1-(2,6-dichloro-3-fluorophenyl)ethoxy]-furo[3,2-c]pyridin-3-yl}phenyl)benzenesulfonamide] | 5 to 20 µM | 0.5 to 5 µM
Nc1ncc2ccoc2c1OCc1nnc2ccc(-c3ccccc3)nn12 [Example 473, 7-[(6-phenyl[1,2,4]triazolo[4,3-b]pyridazin-3-yl)methoxy]furo[3,2-c]pyridin-6-amine] | > 20 µM | 0.5 to 5 µM
CC(Oc1c(N)ncc2c(-c3cnn(C4CCNCC4)c3)coc12)c1ccc(C(F)(F)F)cc1 (centres unmarked) [Example 348, 3-(1-Piperidin-4-yl-1H-pyrazol-4-yl)-7-[1-(4-trifluoromethyl-phenyl)ethoxy]furo[3,2-c]pyridin-6-ylamine] | 0.5 to 5 µM | < 0.5 µM
C#CCC(Oc1c(N)ncc2c(-c3cnn(C4CCNCC4)c3)coc12)c1c(Cl)cccc1Cl (centres unmarked) [Example 341, 7-[1-(2,6-Dichlorophenyl)but-3-ynyloxy]-3-(1-piperidin-4-yl-1H-pyrazol-4-yl)-furo[3,2-c]pyridin-6-ylamine] | < 0.5 µM | < 0.5 µM
C[C@@H](Oc1c(N)ncc2c(-c3ccc(C(=O)NCCN4CCCC4)cc3)coc12)c1c(Cl)ccc(F)c1Cl [Example 101, 4-{6-Amino-7-[(R)-1-(2,6-dichloro-3-fluorophenyl)ethoxy]-furo[3,2-c]pyridin-3-yl}-N-(2-pyrrolidin-1-ylethyl)benzamide] | 0.5 to 5 µM | < 0.5 µM
C[C@@H](Oc1c(N)ncc2c(-c3cnn(C4CCNCC4)c3)coc12)c1cccc(F)c1 [Example 337, 7-[(R)-1-(3-fluorophenyl)ethoxy]-3-(1-piperidin-4-yl-1H-pyrazol-4-yl)-furo[3,2-c]pyridin-6-ylamine] | 0.5 to 5 µM | < 0.5 µM
C[C@@H](Oc1c(N)ncc2c(-c3cnn(C4CCN(S(C)(=O)=O)CC4)c3)coc12)c1c(Cl)ccc(F)c1Cl [Example 275, 7-[(1R)-1-(2,6-Dichloro-3-fluorophenyl)ethoxy]-3-{1-[1-(methyl-sulfonyl)piperidin-4-yl]-1H-pyrazol-4-yl}furo[3,2-c]pyridin-6-amine] | 0.5 to 5 µM | 0.5 to 5 µM
C[C@@H](Oc1c(N)ncc2c(-c3cncc(C(=O)N4CCOCC4)c3)coc12)c1c(Cl)ccc(F)c1Cl [Example 282, (5-{6-Amino-7-[(R)-1-(2,6-dichloro-3-fluorophenyl)ethoxy]furo[3,2-c]pyridin-3-yl}pyridin-3-yl)morpholin-4-ylmethanone] | 5 to 20 µM | 0.5 to 5 µM
CCCN1CC=C(c2coc3c(O[C@H](C)c4c(Cl)ccc(F)c4Cl)c(N)ncc23)CC1 [Example 42, 7-[(R)-1-(2,6-Dichloro-3-fluorophenyl)-ethoxy]-3-(1-propyl-1,2,3,6-tetrahydropyridin-4-yl)-furo[3,2-c]pyridin-6-ylamine] | < 0.5 µM | < 0.5 µM
C[C@@H](Oc1c(N)ncc2c(C3=CCN(C(=O)C(N)C(F)(F)F)CC3)coc12)c1c(Cl)ccc(F)c1Cl (stereo partly drawn) [Example 260, 2-Amino-1-[4-{6-amino-7-[(1R)-1-(2,6-dichloro-3-fluorophenyl)-ethoxy]furo[3,2-c]pyridin-3-yl}-3,6-dihydropyridin-1(2H)-yl]-3,3,3-trifluoropropan-1-one] | 0.5 to 5 µM | 0.5 to 5 µM
CC(C)CN1CC=C(c2coc3c(O[C@H](C)c4c(Cl)ccc(F)c4Cl)c(N)ncc23)CC1 [Example 41, 7-[(R)-1-(2,6-Dichloro-3-fluorophenyl)-ethoxy]-3-(1-isobutyl-1,2,3,6-tetrahydropyridin-4-yl)-furo[3,2-c]pyridin-6-ylamine] | < 0.5 µM | < 0.5 µM
CC(Oc1c(N)ncc2c(-c3cnn(C4CCNCC4)c3)coc12)c1cccc(C(N)=O)c1 (centres unmarked) [Example 411, 3-{1-[6-Amino-3-(1-piperidin-4-yl-1H-pyrazol-4-yl)furo[3,2-c]pyridin-7-yloxy]ethyl}benzamide] | 0.5 to 5 µM | 0.5 to 5 µM

Further lines, results first:

IC50 [1] | IC50 [2] | SMILES
0.5 to 5 µM | < 0.5 µM | C[C@@H](Oc1c(N)ncc2c(-c3ccc(C(=O)N4CCN(C)CC4)cc3)coc12)c1c(Cl)ccc(F)c1Cl [Example 75, (4-{6-Amino-7-[(R)-1-(2,6-dichloro-3-fluorophenyl)ethoxy]-furo[3,2-c]pyridin-3-yl}phenyl)-(4-methylpiperazin-1-yl)methanone]
0.5 to 5 µM | 0.5 to 5 µM | CC(=O)Nc1ccc(-c2coc3c(O[C@H](C)c4c(Cl)ccc(F)c4Cl)c(N)ncc23)cc1 [Example 58, N-(4-{6-Amino-7-[(R)-1-(2,6-dichloro-3-fluorophenyl)ethoxy]-furo[3,2-c]pyridin-3-yl}phenyl)acetamide]
0.5 to 5 µM | < 0.5 µM | C[C@@H](Oc1c(N)ncc2c(-c3ccc(C(=O)NCC(C)(C)CN(C)C)cc3)coc12)c1c(Cl)ccc(F)c1Cl [Example 298, 4-{6-Amino-7-[(R)-1-(2,6-dichloro-3-fluorophenyl)ethoxy]furo[3,2-c]pyridin-3-yl}-N-(3-dimethylamino-2,2-dimethylpropyl)benzamide]
0.5 to 5 µM | < 0.5 µM | COCCNC(=O)c1coc2c(O[C@H](C)c3c(Cl)ccc(F)c3Cl)c(N)ncc12 [Example 192, 6-Amino-7-[(R)-1-(2,6-dichloro-3-fluorophenyl)ethoxy]furo[3,2-c]pyridine-3-carboxylic acid (3-methoxyethyl)amide]
< 0.5 µM | 0.5 to 5 µM | CC(C)[C@H](O)C(=O)N1CC=C(c2coc3c(O[C@H](C)c4c(Cl)ccc(F)c4Cl)c(N)ncc23)CC1 [Example 267, (2S)-1-[4-{6-Amino-7-[(1R)-1-(2,6-dichloro-3-fluorophenyl)ethoxy]furo[3,2-c]pyridin-3-yl}-3,6-dihydropyridin-1(2H)-yl]-2-hydroxy-3-methylbutan-1-one]
0.5 to 5 µM | 0.5 to 5 µM | C[C@@H](Oc1c(N)ncc2c(-c3ccc(CO)s3)coc12)c1c(Cl)ccc(F)c1Cl [Example 212, (5-{6-Amino-7-[(R)-1-(2,6-dichloro-3-fluorophenyl)ethoxy]-furo[3,2-c]pyridin-3-yl}-thiophen-2-yl)methanol]
0.5 to 5 µM | < 0.5 µM | C[C@@H](Oc1c(N)ncc2c(-c3cccc(CN(C)C)c3)coc12)c1c(Cl)ccc(F)c1Cl [Example 96, 7-[(R)-1-(2,6-Dichloro-3-fluorophenyl)ethoxy]-3-(3-dimethyl-aminomethylphenyl)furo[3,2-c]pyridin-6-ylamine]
0.5 to 5 µM | < 0.5 µM | C[C@@H](Oc1c(N)ncc2c(C3=CCCN(C(N)=O)C3)coc12)c1c(Cl)ccc(F)c1Cl [Example 143, 5-{6-Amino-7-[(R)-1-(2,6-dichloro-3-fluorophenyl)ethoxy]furo[3,2-c]pyridin-3-yl}-3,6-dihydro-2H-pyridine-1-carboxamide]
0.5 to 5 µM | 0.5 to 5 µM | CC(=O)c1ccc(-c2coc3c(O[C@H](C)c4c(Cl)ccc(F)c4Cl)c(N)ncc23)s1 [Example 114, 1-(5-{6-Amino-7-[(R)-1-(2,6-dichloro-3-fluorophenyl)ethoxy]furo[3,2-c]pyridin-3-yl}thiophen-2-yl)ethanone]
0.5 to 5 µM | 0.5 to 5 µM | C[C@@H](Oc1c(N)ncc2c(-c3ccc[nH]3)coc12)c1c(Cl)ccc(F)c1Cl [Example 133, 7-[(R)-1-(2,6-Dichloro-3-fluorophenyl)ethoxy]-3-(1H-pyrrol-2-yl)furo[3,2-c]pyridin-6-amine]
